# Source: US20250214996A1, “SALTS AND SOLID FORMS OF AN ESTROGEN RECEPTOR ANTAGONIST” (Olema Pharmaceuticals, Inc., priority 2022, published 2025)
# What was measured:
# Assay type in all cases: physicochemical
# [1] = Water solubility at RT, 24 hours, HPLC/pH/XRPD
# Method: The HPLC method used for solubility measurements is summarized below:
# Water solubility was measured in water at RT to evaluate solubility and disproportionation risk. […] After centrifugation, supernatants were collected for HPLC and pH tests, and wet cakes were collected for XRPD characterization.
# [2] = Solubility by gravimetric method; details: H2O, 25° C.
# Method: Solubility studies of Compound 1 and Compound 1 Fumarate in different solvents at 25° C. were performed. Solubility was measured by the dynamic method and gravimetric method.
# Gravimetric method: Excess solids and a certain amount of solvent were added 8 mL vials, stirred for 24 hours, and filtered.
# [3] = Competitive slurry of Fumarate Form E and Fumarate Form A Anhydrate (XRPD)
# Method: Competitive slurry experiments were performed with Compound 1 Fumarate Form E and Compound 1 Fumarate Form A Anhydrate, as follows:
# Experiment #1: Compound 1 Fumarate Form E (100 mg), Compound 1 Fumarate Form A Anhydrate (100 mg), and isopropanol (2 mL) were added into two 8-mL vials and mixed well in a shaker at 25° C. and 40° C., respectively. Samples for analysis were taken at 24 h and 72 h.
# Experiment #2: Compound 1 Fumarate Form E (100 mg), Compound 1 Fumarate Form A Anhydrate (100 mg), and water (2 mL) were added into two 8-mL vials and mixed well in a shaker at 25° C. and 40° C., respectively. Samples for analysis were taken at 24 h and 72 h.
# Experiment #3: Compound 1 Fumarate Form E (100 mg), Compound 1 Fumarate Form A Anhydrate (100 mg), and ethyl acetate (2 mL) were added into two 8-mL vials and mixed well in a shaker at 25° C. and 40° C., respectively. Samples for analysis were taken at 24 h and 72 h.
# [4] = Stability in oven at 60° C. for two weeks
# Method: Amorphous Compound 1, Compound 1 Fumarate Form E, and Compound 1 Fumarate Form A Anhydrate were placed in an oven at 60° C. for two weeks to evaluate their stability.
# [5] = Dynamic vapor sorption (DVS) hygroscopicity
# Method: Dynamic Vapor Sorption (DVS) was measured by a SMS (Surface Measurement Systems) DVS Intrinsic. Parameters for DVS test are listed below:
# Alternatively, DVS was performed using Intrinsic DVS ([…], UK). About 30-50 mg of sample was placed in a sample basked and hung in the measuring chamber. For an isotherm test, the chamber temperature is maintained by a water bath at a constant 25±1° C. The sample was tested at a targeted RH from 0 to 90% full cycle in step mode. The analysis was performed in 10% RH increments. Time duration at each RH was set as 60 min so that the sample could reach equilibrium with the chamber environment. Data were collected in 20 s increments.
# A DVS isotherm plot was collected at 25° C. to investigate the solid form stability as a function of humidity. For Compound 1 Fumarate Form A Anhydrate, solids were pre-equilibrated at 0% RH to remove the unbounded solvent or water before the hygroscopicity experiment was started.
# [6] = Slurry in isopropanol for 1 day (XRPD)
smiles,measurement,setting,value
CCCN1CC(Oc2ccc([C@@H]3c4[nH]c5ccccc5c4C[C@@H](C)N3CC(C)(C)F)cc2)C1.O=C(O)/C=C/C(=O)O [Compound 1 Fumarate Form A Anhydrate],Purity,[1]; HPLC after 24 hours in water at RT,~100%
same,pH,[1]; supernatant after 24 hours in water at RT,5.24
same,Solubility in Water,"[1]; water, RT, 24 hours, stirring at 400 rpm",2230 µg/mL
same,Form Change after 24 h?,[1]; wet cake XRPD after 24 hours in water at RT,No
same,Solubility,[2],6500 µg/mL
same,competitive slurry outcome (XRPD),"[3]; ethyl acetate, 72 h at 25° C. or 40° C.",a mixture of Compound 1 Fumarate Form E and Compound 1 Fumarate Form A Anhydrate remained
same,competitive slurry outcome (XRPD),"[3]; isopropanol, 24 h at 25° C. or 40° C.",completely transformed into Compound 1 Fumarate Form E
same,competitive slurry outcome (XRPD),"[3]; water, 72 h at 25° C. or 40° C.",a mixture of Compound 1 Fumarate Form E and Compound 1 Fumarate Form A Anhydrate remained
same,HPLC Purity (%) Starting,[4]; before storage,99.58%
same,XRPD,[4]; form after oven at 60° C. for two weeks,No change
same,HPLC Purity (%) 60° C.,[4]; oven at 60° C. for two weeks,99.54%
same,HPLC Purity (%) Degradation,[4]; oven at 60° C. for two weeks,−0.04%
same,stability relative to Amorphous Compound 1,[4]; oven at 60° C. for two weeks,improved stability
same,hygroscopicity by DVS,[5]; DVS,non-hygroscopic
same,water uptake up to 80% RH,[5]; DVS isotherm at 25° C.,less than 0.20%
same,Form Change after DVS?,[5]; XRPD before and after DVS,No
same,Hygroscopicity (%)* (class),[5]; based on water uptake at 25° C./80% RH,Non-hygroscopic
same,Hygroscopicity (%)* (water uptake),[5]; water uptake at 25° C./80% RH,(0.108) %
same,form after slurrying (XRPD),[6],No change in form
